Where two headings read alike, the source gives them in different places. Starred links: 1 amine or outer side, 2 acyl side, 3 side chain; linkers in the order of their positions; H or OH if unused. Non-standard residues stand in square brackets, D forms with d. Residues, ends and D or L forms follow the SMILES beside them. *: point of attachment. γ4hIle = CC[C@H](C)[C@@H](CCC(=O)[*:2])N[*:1]; Benzoyl(3-CN,4-F) = N#Cc1cc(C(=O)*)ccc1F; Ava = NCCCCC(=O)O
Experiments:
[1] = test system: human prostate cancer PC-3; settings: mouse, in vivo
Protocol: (§1) Nude mice bearing human prostate cancer PC-3 were injected with 100 μl radioactive peptide dissolved in PBS containing 135 kBq per animal. For blocking 100 μg unlabeled gastrin-releasing peptide was co-injected. One hour post injection the animals were sacrificed and organs dissected for counting in a gamma-counter. Values are expressed as percent of the injected dose per gram organ weight.

[2] = test system: human prostate cancer PC-3; assay: Biodistribution of F-18 bombesin analogs in nude mice bearing human prostate cancer PC-3; settings: for Blocking: protocol as above (100 μg unlabeled gastrin-releasing peptide co-injected)
Protocol: as §1

tumor = settings: FIG. 5; versus tumor-tissue ratio of 18F-choline (FCH) and 18F-FB-Lys-BN
[3] = Biodistribution of F-18 bombesin analogs in nude mice bearing human prostate cancer PC-3; settings: nude, mouse, 135 kBq per animal, total radioactivity
Protocol: as §1

Compound	Panc. % ID/g [1]	T/B [1]	T/M [1]	Blocking ([2]; Table 1)	tumor-tissue ratio relative to 18F-choline (FCH) and 18F-FB-Lys-BN (tumor)	tissue uptake at 1 h ([3]; blood)	tissue uptake at 1 h ([3]; kidneys)	tissue uptake at 1 h ([3]; liver)	tissue uptake at 1 h ([3]; muscle)	tissue uptake at 1 h ([3]; pancreas)	tissue uptake at 1 h ([3]; tumor)	tissue to tissue ratio at 1 h ([3]; tumor/blood)	tissue to tissue ratio at 1 h ([3]; tumor/muscle)	T/B ([2]; Table 1, tumor/blood ratio)	T/M ([2]; Table 1, tumor/muscle ratio)	specificity of targeting (blocking) ([2]; blocking values low in tumor, unchanged for the other tissue)	accumulation in tumor ([2]; conclusion from biodistribution, 1 h)
3-CF3,4-F-Benzoyl-Arg-Ava-Gln-Trp-Ala-Val-NMeGly-His-Sta-Leu-NH2 (RXQWAVGHXL; N-methyl; non-natural residues)	1.42 % ID/g	4.56	25.3	>70%	–	–	–	–	–	–	–	–	–	–	–	–	–
3-CN,4-F-Benzoyl-Arg-Ava-Gln-Trp-Ala-Val-Gly-His(3Me)-Sta-Leu-NH2 (RXQWAVGHXL; non-natural residues)	4.16 % ID/g	5.65	13.84	30-90%	–	–	–	–	–	–	–	–	–	–	–	–	–
3-CN,4-F-Benzoyl-Arg-Ava-Gln-Trp-Ala-Val-NMeGly-His-Sta-Leu-NH2 (RXQWAVGHXL; N-methyl; non-natural residues)	1.3 % ID/g	6.82	12.75	40-70%	–	–	–	–	–	–	–	–	–	–	–	–	–
4F,3CN-Bnz-Arg-Ava-Gln-Trp-Ala-Val-NMeGly-His(3Me)-Sta-Leu-NH2 (RXQWAVGHXL; N-methyl; non-natural residues)	3.51 % ID/g	2.57	16.77	50-80%	–	–	–	–	–	–	–	–	–	–	–	–	–
CC[C@H](C)[C@@H](CCC(=O)N[C@@H](CC(C)C)C(N)=O)NC(=O)[C@H](Cc1c[nH]cn1)NC(=O)CNC(=O)[C@@H](NC(=O)[C@H](C)NC(=O)[C@H](Cc1c[nH]c2ccccc12)NC(=O)[C@H](CCC(N)=O)NC(=O)CCCCNC(=O)c1ccc(F)c(C#N)c1)C(C)C [3-CN,4-F-Bz-Ava-Gln-Trp-Ala-Val-Gly-His-FA01010-Leu-NH2] ({Benzoyl(3-CN,4-F)-Ava}-QWAVGH[γ4hIle]L-NH2)	–	–	–	>70%	2.5 time higher	0.05 ± 0.01 %ID/g	0.24 ± 0.02 %ID/g	0.35 ± 0.13 %ID/g	0.02 %ID/g	0.34 ± 0.03 %ID/g	1 ± 0.01 %ID/g	21 ± 11.9	60 ± 29.5	21.03	59.99	specific	accumulates in tumor

Source: patent publication US20090317326A1, “RADIOFLUORINATION METHODS” (priority 2007, published 2009)
